In patent US20220265694A1, “COMPOSITIONS AND METHODS FOR TREATING AN INFECTION” (CMPD LICENSING, LLC, priority 2016, published 2022):
Read-outs that look alike come from different tables or passages of the source.

Experiments:
[1] = test system: Providencia stuartii; test: Expected efficacy of antibiotic agents; conditions: expected efficacy against Providencia stuartii; Gram: neg
[2] = test system: Haemophilus parainfluenzae; test: Expected efficacy of antibiotic agents; conditions: expected efficacy against Haemophilus parainfluenzae; Gram: neg
[3] = test system: Citrobacter diversus; test: Expected efficacy of antibiotic agents; conditions: expected efficacy against Citrobacter diversus; Gram: neg
[4] = test system: Morganella morganii; test: Expected efficacy of antibiotic agents; conditions: expected efficacy against Morganella morganii; Gram: neg
[5] = test system: Haemophilus influenzae; test: Expected efficacy of antibiotic agents; conditions: expected efficacy against Haemophilus influenzae; Gram: neg
[6] = test system: Staphylococcus epidermidis; test: Expected efficacy of antibiotic agents; conditions: expected efficacy against Staphylococcus epidermidis; Gram: pos
[7] = test system: Chlamydia psittaci
[8] = test system: Yersinia pestis
[9] = test system: Streptococcus agalactiae; test: Expected efficacy of antibiotic agents; conditions: expected efficacy against Streptococcus agalactiae; Gram: pos
[10] = test system: Chlamydia trachomatis; test: Expected efficacy of antibiotic agents; conditions: expected efficacy against Chlamydia trachomatis; Gram: n/a
[11] = test system: Vibrio cholerae; test: Expected efficacy of antibiotic agents; conditions: expected efficacy against Vibrio cholerae; Gram: neg
[12] = test system: Neisseria gonorrhoeae; test: Expected efficacy of antibiotic agents; conditions: expected efficacy against Neisseria gonorrhoeae; Gram: neg
[13] = test system: Enterobacter cloacae; test: Expected efficacy of antibiotic agents; conditions: expected efficacy against Enterobacter cloacae; Gram: neg
[14] = test system: Viridans group streptococci; test: Expected efficacy of antibiotic agents; conditions: expected efficacy against Viridans group streptococci; Gram: pos
[15] = test system: Acinetobacter lwoffii; test: Expected efficacy of antibiotic agents; conditions: expected efficacy against Acinetobacter lwoffii; Gram: neg
[16] = test system: Acinetobacter baumannii; test: Expected efficacy of antibiotic agents; conditions: expected efficacy against Acinetobacter baumannii; Gram: neg
[17] = test system: Klebsiella oxytoca; test: Expected efficacy of antibiotic agents; conditions: expected efficacy against Klebsiella oxytoca; Gram: neg
[18] = test system: Methicillin resistant staph aureus (MRSA); test: Expected efficacy of antibiotic agents; conditions: expected efficacy against Methicillin resistant staph aureus (MRSA); Gram: pos
[19] = test system: Enterococcus faecalis; test: Expected efficacy of antibiotic agents; conditions: expected efficacy against Enterococcus faecalis; Gram: pos
[20] = test system: Escherichia coli; test: Expected efficacy of antibiotic agents; conditions: expected efficacy against Escherichia coli; Gram: neg
[21] = test system: Enterobacter sakazakii; test: Expected efficacy of antibiotic agents; conditions: expected efficacy against Enterobacter sakazakii; Gram: neg
[22] = test system: Klebsiella (Calymmatobacterium); test: Expected efficacy of antibiotic agents; conditions: expected efficacy against Klebsiella (Calymmatobacterium); Gram: neg
[23] = test system: Bordetella pertussis; test: Expected efficacy of antibiotic agents; conditions: expected efficacy against Bordetella pertussis; Gram: neg
[24] = test system: Citrobacter freundii; test: Expected efficacy of antibiotic agents; conditions: expected efficacy against Citrobacter freundii; Gram: neg
[25] = test system: Proteus mirabilis; test: Expected efficacy of antibiotic agents; conditions: expected efficacy against Proteus mirabilis; Gram: neg
[26] = test system: Corynebacterium jeikeium; test: Expected efficacy of antibiotic agents; conditions: expected efficacy against Corynebacterium jeikeium; Gram: pos
[27] = test system: Haemophilus ducreyi; test: Expected efficacy of antibiotic agents; conditions: expected efficacy against Haemophilus ducreyi; Gram: neg
[28] = test system: Clostridium perfringens
[29] = test system: Diphtheroids; test: Expected efficacy of antibiotic agents; conditions: expected efficacy against Diphtheroids; Gram: pos
[30] = test system: Francisella tularensis
[31] = test system: Staphylococcus aureus (MSSA); test: Expected efficacy of antibiotic agents; conditions: expected efficacy against Staphylococcus aureus (MSSA); Gram: pos
[32] = test system: Legionella pneumophila
[33] = test system: Serratia marcescens; test: Expected efficacy of antibiotic agents; conditions: expected efficacy against Serratia marcescens; Gram: neg
[34] = test system: Rickettsiae
[35] = test system: Campylobacter jejuni; test: Expected efficacy of antibiotic agents; conditions: expected efficacy against Campylobacter jejuni; Gram: neg
[36] = test system: Acinetobacter calcoaceticus; test: Expected efficacy of antibiotic agents; conditions: expected efficacy against Acinetobacter calcoaceticus; Gram: neg
[37] = test system: Proteus vulgaris; test: Expected efficacy of antibiotic agents; conditions: expected efficacy against Proteus vulgaris; Gram: neg
[38] = test system: Corynebacterium urealyticum; test: Expected efficacy of antibiotic agents; conditions: expected efficacy against Corynebacterium urealyticum; Gram: pos
[39] = test system: Shigella boydii; test: Expected efficacy of antibiotic agents; conditions: expected efficacy against Shigella boydii; Gram: neg
[40] = test system: Streptococcus pneumoniae; test: Expected efficacy of antibiotic agents; conditions: expected efficacy against Streptococcus pneumoniae; Gram: pos
[41] = test system: Pseudomonas aeruginosa; test: Expected efficacy of antibiotic agents; conditions: expected efficacy against Pseudomonas aeruginosa; Gram: neg
[42] = test system: Bacteroides fragilis; test: Expected efficacy of antibiotic agents; conditions: expected efficacy against Bacteroides fragilis; Gram: anaer
[43] = test system: Shigella dysenteriae; test: Expected efficacy of antibiotic agents; conditions: expected efficacy against Shigella dysenteriae; Gram: neg

CO/N=C(\C(=O)N[C@@H]1C(=O)N2C(C(=O)O)=C(CSc3nc(=O)c(=O)[nH]n3C)CS[C@H]12)c1csc(N)n1 [Ceftriaxone]
Efficacy [1]: yes | Efficacy [2]: yes | Efficacy [3]: yes | Efficacy [4]: yes | Efficacy [5]: yes | Efficacy [6]: yes | Efficacy ([7]; expected efficacy against Chlamydia psittaci, Gram: n/a): no | Efficacy ([8]; expected efficacy against Yersinia pestis, Gram: neg): no | Efficacy [9]: yes | Efficacy [10]: no | Efficacy [11]: no | Efficacy [12]: yes | Efficacy [13]: yes | Efficacy [14]: yes | Efficacy [15]: no | Efficacy [16]: no | Efficacy [17]: yes | Efficacy [18]: no | Efficacy [19]: no | Efficacy [20]: yes | Efficacy [21]: yes | Efficacy [22]: yes | Efficacy [23]: no | Efficacy [24]: yes | Efficacy [25]: yes | Efficacy [26]: no | Efficacy [27]: yes | Efficacy ([28]; expected efficacy against Clostridium perfringens, Gram: anaer): yes | Efficacy [29]: no | Efficacy ([30]; expected efficacy against Francisella tularensis, Gram: neg): no | Efficacy [31]: yes | Efficacy ([32]; expected efficacy against Legionella pneumophila, Gram: neg): no | Efficacy [33]: yes | Efficacy ([34]; expected efficacy against Rickettsiae, Gram: neg): no | Efficacy [35]: no | Efficacy [36]: no | Efficacy [37]: yes | Efficacy [38]: no | Efficacy [39]: yes | Efficacy [40]: yes | Efficacy [41]: no | Efficacy [42]: yes | Efficacy [43]: yes

CN[C@H](CC(C)C)C(=O)N[C@H]1C(=O)N[C@@H](CC(N)=O)C(=O)N[C@H]2C(=O)N[C@H]3C(=O)N[C@H](C(=O)N[C@H](C(=O)O)c4cc(O)cc(O)c4-c4cc3ccc4O)[C@H](O)c3ccc(c(Cl)c3)Oc3cc2cc(c3O[C@@H]2O[C@H](CO)[C@@H](O)[C@H](O)[C@H]2O[C@H]2C[C@](C)(N)[C@H](O)[C@H](C)O2)Oc2ccc(cc2Cl)[C@H]1O [Vancomycin]
Efficacy [1]: no | Efficacy [2]: no | Efficacy [3]: no | Efficacy [4]: no | Efficacy [5]: no | Efficacy [6]: yes | Efficacy [7]: no | Efficacy [8]: no | Efficacy [9]: yes | Efficacy [10]: no | Efficacy [11]: no | Efficacy [12]: no | Efficacy [13]: no | Efficacy [14]: yes | Efficacy [15]: no | Efficacy [16]: no | Efficacy [17]: no | Efficacy [18]: yes | Efficacy [19]: yes | Efficacy [20]: no | Efficacy [21]: no | Efficacy [22]: no | Efficacy [23]: no | Efficacy [24]: no | Efficacy [25]: no | Efficacy [26]: yes | Efficacy [27]: no | Efficacy [28]: no | Efficacy [29]: yes | Efficacy [30]: no | Efficacy [31]: yes | Efficacy [32]: no | Efficacy [33]: no | Efficacy [34]: no | Efficacy [35]: no | Efficacy [36]: no | Efficacy [37]: no | Efficacy [38]: yes | Efficacy [39]: no | Efficacy [40]: yes | Efficacy [41]: no | Efficacy [42]: no | Efficacy [43]: no
